Active and inactive are the calls of the source. The rule behind the calls is not given here.
What was measured:
[1] = biological target: T1, Tyrosine-protein kinase BTK (Homo sapiens, UniProt Q06187); assay: Inhibition of biotinylated and activated BTK (unknown origin) using FITC-labeled Srctide peptide substrate and ATP
[2] = biological target: T1, Tyrosine-protein kinase BTK; assay: Inhibition of biotinylated and unactivated BTK (unknown origin) using FITC-labeled Srctide peptide substrate and ATP
[3] = biological target: T1, Tyrosine-protein kinase BTK; assay: Binding affinity to biotinylated and unactivated BTK (unknown origin) incubated for 1 hr by TR-FRET assay
[4] = biological target: T1, Tyrosine-protein kinase BTK; assay: Binding affinity to biotinylated and unactivated BTK (unknown origin) at 0.001 to 0.1 uM incubated for 1 hr by TR-FRET assay
[5] = biological target: T1, Tyrosine-protein kinase BTK; assay: Binding affinity to biotinylated and activated BTK (unknown origin) at 0.001 to 0.1 uM incubated for 1 hr by TR-FRET assay
[6] = Chemical stability in solution; type: physicochemical
[7] = biological target: T1, Tyrosine-protein kinase BTK; assay: Inhibition of unactivated BTK (unknown origin) using 30 uM probe 5-(4-(4-(6-(3-(4-tert-butylbenzamido)-2-methylphenyl)-4-methyl-3-oxo-3,4-dihydropyrazin-2-ylamino)benzoyl)piperazine-1-carbothioamido)-2-(6-hydroxy-3-oxo-3H-xanthen-9-yl)benzoic acid
[8] = biological target: T1, Tyrosine-protein kinase BTK; assay: Inhibition of biotinylated and activated BTK (unknown origin) up to 100 uM using FITC-labeled Srctide peptide substrate and ATP

T1 sequence (Q06187 whole entry): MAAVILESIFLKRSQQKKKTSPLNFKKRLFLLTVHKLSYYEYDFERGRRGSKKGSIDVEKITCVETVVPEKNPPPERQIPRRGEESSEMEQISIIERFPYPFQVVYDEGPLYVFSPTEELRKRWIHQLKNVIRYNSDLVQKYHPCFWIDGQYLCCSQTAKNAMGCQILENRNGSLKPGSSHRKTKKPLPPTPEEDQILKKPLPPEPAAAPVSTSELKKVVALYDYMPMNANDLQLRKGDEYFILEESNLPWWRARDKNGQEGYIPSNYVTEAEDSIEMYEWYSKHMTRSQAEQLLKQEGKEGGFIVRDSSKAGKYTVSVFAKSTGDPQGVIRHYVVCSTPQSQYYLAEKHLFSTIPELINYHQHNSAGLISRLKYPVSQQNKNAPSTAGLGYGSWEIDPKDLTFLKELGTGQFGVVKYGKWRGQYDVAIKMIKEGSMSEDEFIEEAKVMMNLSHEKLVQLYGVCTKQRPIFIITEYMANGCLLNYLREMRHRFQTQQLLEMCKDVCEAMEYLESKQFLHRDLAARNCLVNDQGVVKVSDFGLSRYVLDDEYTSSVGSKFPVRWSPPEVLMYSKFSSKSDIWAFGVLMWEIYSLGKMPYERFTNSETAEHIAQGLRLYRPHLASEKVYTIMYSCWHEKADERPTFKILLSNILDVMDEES

SMILES	IC50 [1] [nM]	IC50 [2] [nM]	Kd [3] [nM]	Activity [4]	Activity [5]	Stability [6]	inhibition [7] [%]	inhibition [8]
Cc1c(NC(=O)c2ccc(C(C)(C)C)cc2)cccc1-c1cn(C)c(=O)c(Nc2ccc(C(=O)N3CCOC(CNC(=S)Nc4ccc(-c5c6ccc(=O)cc-6oc6cc(O)ccc56)c(C(=O)O)c4)C3)cc2)n1 (stereo unspecified)	350	4.8	3.8	Active	inactive			
Cc1c(NC(=O)c2ccc(C(C)(C)C)cc2)cccc1-c1cn(C)c(=O)c(Nc2ccc(C(=O)NCCNC(=S)Nc3ccc(-c4c5ccc(=O)cc-5oc5cc(O)ccc45)c(C(=O)O)c3)cc2)n1	290	5.6	6.1	Active	inactive	Unstable		
Cc1c(NC(=O)c2ccc(C(C)(C)C)cc2)cccc1-c1cn(C)c(=O)c(Nc2ccc(C(=O)NCCCNC(=S)Nc3ccc(-c4c5ccc(=O)cc-5oc5cc(O)ccc45)c(C(=O)O)c3)cc2)n1	208	3.2	6.2	Active	inactive			
Cc1c(NC(=O)c2ccc(C(C)(C)C)cc2)cccc1-c1cn(C)c(=O)c(Nc2ccc(C(=O)NCCCCNC(=S)Nc3ccc(-c4c5ccc(=O)cc-5oc5cc(O)ccc45)c(C(=O)O)c3)cc2)n1	189	4.3	5.5	Active	inactive	Unstable		
Cc1c(NC(=O)c2ccc(C(C)(C)C)cc2)cccc1-c1cn(C)c(=O)c(Nc2ccc(C(=O)NCCOCCOCCNC(=S)Nc3ccc(-c4c5ccc(=O)cc-5oc5cc(O)ccc45)c(C(=O)O)c3)cc2)n1	305	7.8	8.8	Active	inactive	Unstable		
CC(=O)Nc1cccc(NC(=O)c2ccc(CN3CCN(C)CC3)cc2)c1		4700					> 10	inactive
Cc1c(NC(=O)c2ccc(C(C)(C)C)cc2)cccc1-c1cn(C)c(=O)c(Nc2ccc(C(=O)N3CCN(C(=S)Nc4ccc(-c5c6ccc(=O)cc-6oc6cc(O)ccc56)c(C(=O)O)c4)CC3)cc2)n1	69	0.61	2.5	Active	inactive			

— ChEMBL document CHEMBL3400106, “TR-FRET binding assay targeting unactivated form of Bruton's tyrosine kinase” (Bioorg Med Chem Lett, 2015)
